Data reported in patent publication US6713276B2, “Modulation of Aβ levels by β-secretase BACE2” (Scios, Inc., priority 2000, dated 2004).

Legend:
[1] = tested on: APP751sw; test: cell-free β-secretase assay, β-NTF ELISA, APP751sw substrate; format: biochemical, human; settings: membrane extracts of transfected HEK293 cells, pH 4.5, 37° C.
Protocol: The β-secretase assay consists of two different parts, an incubation or reaction phase to generate β-NTF and an ELISA part to capture and measure the β-NTF generated by β-secretase. The β-secretase ELISA was performed as follows. Each well of a 96 well plate containing a flat bottom (high protein binding, Corning, N.Y.) was coated with 100 μl of the monoclonal capture antibody 8E5 (at ˜8-10 μg/ml) (Johnson-Wood et al. Proc. Natl. Acad. Sci. USA 94: 1550-1555 [1997]). The plate was then covered with parafilm and incubated overnight at 4° C. or alternatively for 2 hours at 37° C. […]
One hundred μl of a 1:5000 dilution of a goat anti rabbit IgG-HRP in Antibody-Conjugate Buffer was then added to each well, and the plate incubated at room temperature for one hour. […] After sufficient blue color had developed, the reactions were stopped by adding 100 μl of 5N H2SO4 to each well, and the amount of βNTF was determined by reading the plate at 450 nm in a Softmax spectrophotometer.
Equal amounts of membrane extracts from either mock, BACE or BACE2 transfected HEK293 cells were incubated with partially purified full length APP751 sw or APP751wt for the indicated times. The formation of β-NTF was then determined using the respective β-NTF specific ELISA as described in General Methodology.

[2] = tested on: APP751sw processing in HEK293T cells; test: co-transfection with APP751sw in HEK293T cells, ELISA of conditioned medium; format: cell-based, human; settings: co-transfected with APP751sw
Protocol: (§1) Expression vectors containing BACE and BACE2 cDNAs were transfected into HEK293T cells in the presence of APP751sw or CT100 (Shoji et al., Science 258: 126-129 [1992]; Lichtenthaler et al., Proc. Natl. Acad. Sci. USA 96: 3053-3058 [1999]). Transfections were performed in 24 well plates using Lipofectamine Plus (Gibco/BRL, Bethesda, Md.) and DNA concentrations were kept constant by including non-specific DNA. Expression plasmids were tested for BACE and BACE2 expression by Western blotting. Cell culture supernatants were collected 48 hours and 72 hours post-transfection, and assayed for α-NTF, β-NTF and Aβ formation. β-NTF measurement was performed as described below. α-NTF was captured like β-NTF but was detected with biotinylated 2H3 (Johnson-Wood et al., Proc. Nati. Acad. Sci. USA 94: 1550-1555 [1997]). Aβ levels were determined by an ELISA using monoclonal antibodies 266 for capture and biotinylated 3D6 for detection (see Johnson-Wood et al., [1997] ibid for antibody epitope description). Aβ42, in contrast, was captured using 21F 12 and detected with biotinylated 3D6. Cell extracts prepared 72 hour post-transfection were separated by SDS-PAGE (Novex) and probed with CT695 (Zymed) for APP and CTFs as well as with an Aβ specific monoclonal antibody WO2 (kindly provided by K. Beyreuther; Ida et al., J. Biol. Chem. 271: 22908-22914 [1996]). […]
Given the ability of BACE2 to cleave APP at the β-secretase site in vitro, we investigated the role of BACE2 in HEK293T cells relative to BACE. […] Cell supernatants were collected 48 hours or 72 hours post-transfection and analyzed for α-NTF, β-NTF, total Aβ and Aβ42 as described in Genenral Methodology. […]
In an independent experiment, we addressed whether BACE2 competed with the ability of BACE to cleave APP at the β-secretase site. HEK293T cells were co-transfected with constant amounts of APP751sw and BACE, and increasing levels of BACE2. β-NTF and Aβ levels were then measured in culture supernatant (FIG. 3). […]

[3] = tested on: APP751sw processing in HEK293T cells; test: pulse-chase / pulse-labeling and immunoprecipitation of APP CTFs, Aβ and p3 in HEK293T cells; format: cell-based, human; settings: HEK293T, APP751sw, 15 min pulse, chase up to 90 minutes
Protocol: Forty eight hours post-transfection, HEK293T cells were labeled for 15 minutes with 200 μCi Promix L [^35S] in vitro cell labeling mix (Amersham) and chased for up to 90 minutes according to standard procedures. APP CTFs were immunoprecipitated with antibodies 369 (Cai et al., Science 259: 514-516 [1993]). For immunoprecipitations of Aβ and p3 from conditioned medium, HEK293T cells were labeled for 5 hours with 300 μCi Promix L [^35S] in vitro cell labeling mix (Amersham) 48 hours post-transfection. Aβ40 and Aβ42 as well as the corresponding p3 species were immunoprecipitated with monoclonal antibodies 1702.1 and 108.1, respectively (Higaki et al., J. Med. Chem. 42: 3889-3898 [1999]).
To analyze the metabolism of APP as a consequence of BACE or BACE2 overexpression we performed a parallel pulse-chase experiment (FIG. 2e). HEK293T cells transfected as above were pulse-labeled and chased for up to 90 minutes and APP and CTFs were immunoprecipitated. […] An alternative β-secretase related cleavage product (β′-CTF) was also formed consistent with previous reports (Vassar et al., Science [1999] ibid; Higaki et al., Neuron 14: 651-659 [1995]). Consistent with its β-secretase activity, BACE2 overexpression led to a significant initial increase in β-CTF levels compared to mock-transfected cells. […] To determine whether BACE affected γ-secretase activity, we determined whether p3 could be formed. […]

[4] = tested on: APP751sw processing in SK-N-MC cells; test: co-transfection with APP751sw in SK-N-MC neuroblastoma cells, ELISA of conditioned medium; format: cell-based, human; settings: co-transfected with APP751sw
Protocol: as §1, with “3D6.” for “3D6. Cell extracts prepared 72 hour post-transfection were separated by SDS-PAGE (Novex) and probed with CT695 (Zymed) for APP and CTFs as well as with an Aβ specific monoclonal antibody WO2 (kindly provided by K. Beyreuther; Ida et al., J. Biol. Chem. 271: 22908-22914 [1996]).”
We further assessed the modulatory effect of BACE2 on Aβ formation using a human neuroblastoma cell line, SK-N-MC.

[5] = tested on: CT100 (C-terminal 100 amino acids of APP) processing in HEK293T cells; test: co-transfection with CT100 in HEK293T cells, ELISA, Western blot, pulse-chase; format: cell-based, human; settings: HEK293T, co-transfected with CT100
Protocol: as §1, with “3D6.” for “3D6. Cell extracts prepared 72 hour post-transfection were separated by SDS-PAGE (Novex) and probed with CT695 (Zymed) for APP and CTFs as well as with an Aβ specific monoclonal antibody WO2 (kindly provided by K. Beyreuther; Ida et al., J. Biol. Chem. 271: 22908-22914 [1996]).”
This effect prompted investigation into whether β-secretase cleavage was required for Aβ suppression. The effects of BACE2 on the metabolism of the C-terminal 100 amino acids of APP (CT100), a construct that mimics prior β-secretase cleavage (Shoji et al., Science 258: 126-129 [1992]), was analyzed. […]

## BACE: β-site APP-cleaving enzyme, membrane-bound aspartyl protease, cloned from human brain cDNAs and overexpressed
[1]
  β-NTF formation (β-secretase cleavage in vitro): time-dependent increase in β-NTF formation
[2]
  total Aβ in conditioned medium: Aβ production was not significantly stimulated
  α-NTF levels in conditioned medium: α-NTF levels were proportionally reduced
[2]; APP751sw alone ~2.59
  total OD of α-NTF plus β-NTF: ~2.3 OD
[3]
  APP CTF turnover (β-CTF, β′-CTF, α-CTF): accumulation of β-CTF
[4]
  Aβ in conditioned medium: very pronounced increase in both β-NTF and Aβ
  β-NTF in conditioned medium: very pronounced increase in both β-NTF and Aβ
[5]
  total Aβ and Aβ42 levels in conditioned medium: did not affect the levels of Aβ
